Assay results taken from patent publication US20090269330A1, “FATTY ACID TRIGLYCERIDES FOR MAKING BIOCOMPATIBLE COATINGS” (ZISCOAT NV, priority 2006, published 2009).

Experiment: In vitro drug release from enzymatically transesterified triglyceride coating on stainless steel samples
Type: physicochemical
Conditions: 5 weight % paclitaxel in enzymatically transesterified triglyceride coating; PBS with 0.02% (w/v) sodium azide, 37° C.; after 5 weeks; HPLC
Experimental: Transesterified triglyceride mixtures were made using the following procedure: • 30 weight % tristearin, 30 weight % triolein, 40 weight % trilinolein are put in a vacuum furnace at 70° C. during 1 hour • the mixture is stirred during 30 minutes at 75° C. • 1% of 1,3 specific lipase (lipozyme) is added to the mixture at 75° C. during 1 hour. • Filtration over Whatman no. 4 filter. The slip melting point of the resulting mixture was 60° C.
5 weight % of paclitaxel (taxol) and acetone were added to this triglyceride mixture, heated to 50° C. and stirred until homogeneous. Stainless steel samples were dipped into the solution followed by air-drying. The samples were put into 5 ml of release medium (PBS with 0.02% (w/v) sodium azide) at 37° C. and continuously shaken with a rocking table. At different time points, samples were put in a new vial with fresh release medium. The medium of the previous vials were analyzed with HPLC to determine the concentration of paclitaxel that was released. After the test, the remaining paclitaxel was liberated from the coating on the stainless steel samples by dissolving the coating in acetone at 50° C.

## CC(=O)O[C@H]1C(=O)[C@@]2(C)[C@H]([C@H](OC(=O)c3ccccc3)[C@]3(O)C[C@H](OC(=O)[C@H](O)[C@@H](NC(=O)c4ccccc4)c4ccccc4)C(C)=C1C3(C)C)[C@]1(OC(C)=O)CO[C@@H]1C[C@@H]2O [paclitaxel]
  percentage of drug released from coating: 75%
